Numbered stars: 1 amine (or outer) side, 2 acyl side, 3 side chain; on linkers, the order of the positions; unused ones are H or OH. Bridge positions count the residues as written; N and C are the ends. Square brackets hold non-standard residues; d marks the D form. Peptide text beside a SMILES is read from it. ξ: configuration not given here. ξαMeNle(6-ylidene) = CC(CCCC=[*:3])(N[*:1])C(=O)[*:2]; Nle = CCCC[C@H](N)C(=O)O

The values that follow come from patent publication US9175045B2, “Peptidomimetic macrocycles” (Aileron Therapeutics, Inc., priority 2008, dated 2015).

Series [1] deals with Jurkat cell line. The format is cell-based. The following applies: for EC50: 24 h. In short, it runs like this:
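Jurkat E6-1 cells in Opti-MEM, serum-free or with 2% or 10% human serum, were treated 24 h at 37° C. with crosslinked polypeptides: final 0.6-20 μM serum-free, 3.125-100 μM with serum. Viability measured by CellTiter-Glo luminescence; Triton X-100 and DMSO-only wells served as controls.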

Series [2] concerns the target human serum proteins. Nature of the series: Apparent affinity to human serum proteins (Kd*) by EC50 shift analysis. The series is classed as in vitro ADME. The following applies: nonlinear regression of EC50 shift with serum, n = 1, P = 700 μM for 100% serum. In short, it runs like this:
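Kd* fitted by nonlinear regression of EC50 shifts across increasing serum concentrations. Shift attributed entirely to HSA (P = 700 µM at 100% serum, 70 µM at 10%), with 1:1 binding stoichiometry fixed. Whole-blood EC′50 estimated with P = 700 µM.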

Series [3] is described as follows: Estimated free fraction in blood, calculated from Kd* with [HSA]total 700 μM. The format is in vitro ADME. The following applies: human; [HSA]total set at 700 μM; read-out: Free Fraction est. in blood. As to the method:
The free fraction in blood is estimated per the following equation, as derived by Trainor, Expert Opin. Drug Disc., 2007, 2(1):51-64, where [HSA]total is set at 700 μM. [formula]

For `CC[C@H](C)[C@H](NC(C)=O)C(=O)N[C@@H](Cc1c[nH]c2ccccc12)C(=O)N[C@H](C(=O)N[C@@H](C)C(=O)N[C@@H](CCC(N)=O)C(=O)N[C@@H](C)C(=O)N[C@@H](CC(C)C)C(=O)N[C@@H](CCCNC(=N)N)C(=O)NC1(C)CCCC=CCCCC(C)(C(=O)N[C@@H](Cc2ccccc2)C(=O)N[C@@H](CC(N)=O)C(=O)N[C@@H](C)C(=O)N[C@@H](Cc2ccc(O)cc2)C(=O)N[C@@H](Cc2ccc(O)cc2)C(=O)N[C@@H](C)C(=O)N[C@@H](CCCNC(=N)N)C(=O)N[C@@H](CCCNC(=N)N)C(N)=O)NC(=O)[C@H](CC(N)=O)NC(=O)CNC(=O)[C@H]([C@@H](C)CC)NC1=O)[C@@H](C)CC` (stereo partly shown) [Compound 16, Ac-IWIAQALR$IGN$FNAYYARR-NH2], the EC50 (commonly the concentration at which the effect is half-maximal) in series [1] was 0.5 µM. Moreover, the Kd in series [2] came to 3.5 µM. Further, the fraction unbound in series [3] is 0.0058.
On to `CCCC[C@H](NC(=O)C1(C)CCCC=CCCCC(C)(NC(=O)[C@H](C)NC(=O)[C@H](CC(C)C)NC(=O)[C@H](Cc2c[nH]cn2)NC(=O)[C@H](CCCNC(=N)N)NC(=O)[C@H](C)NC(=O)[C@@H](NC(=O)[C@H](CC(N)=O)NC(=O)[C@H](CCCNC(=N)N)NC(=O)[C@@H](NC(=O)[C@@H](NC(=O)[C@H](CC(=O)O)NC(C)=O)[C@@H](C)CC)[C@@H](C)CC)[C@@H](C)CC)C(=O)N[C@@H](C(C)C)C(=O)NCC(=O)N[C@@H](CC(=O)O)C(=O)N1)C(=O)N[C@@H](CC(=O)O)C(=O)N[C@@H](CCCNC(=N)N)C(=O)N[C@@H](CO)C(=O)N[C@H](C(N)=O)[C@@H](C)CC` (stereo partly shown) [Compound 1, Ac-DIIRNIARHLA$VGD$NleDRSI-NH2] (Ac-DIIRNIARHLA[ξαMeNle(6-ylidene)]VGD[ξαMeNle(6-ylidene)][Nle]DRSI-NH2; staple 12-16), for which, in series [1], the concentration giving a half-maximal response (EC50) came out at 1.2 µM. Moreover, the “efficacy in serum-free media and in the presence of serum” value in series [1] (statement in words) is “high efficacy in serum-free media, which is substantially reduced in the presence of serum”. Further, in series [2], the Kd was under 0.1 µM. In addition, the fraction unbound in series [3] was under 0.001.
